Measurements taken from ChEMBL document CHEMBL1137697, “In vitro and in vivo antitrypanosomatid activity of 5-nitroindazoles” (Eur J Med Chem, 2009).
Activity calls are given as the source filed them. No cut-off for these calls is given here.

Assays:
Trypanosoma cruzi [1] = experiment: Antitrypanosomal activity against Trypanosoma cruzi bloodstream trypomastigote in mouse blood assessed as lysis of trypomastigotes at 250 ug/mL after 24 hrs relative to control; assay type: functional
J774 [2] = experiment: Cytotoxicity in mouse J774 cells at 100 ug/mL after 24 hrs; assay type: cell-based; conditions: j774, 24 h
J774 [3] = experiment: Cytotoxicity in mouse J774 cells at 100 ug/mL after 48 hrs; assay type: cell-based; conditions: j774, 48 h
Leishmania amazonensis = experiment: Antileishmanial activity against Leishmania amazonensis MHOM/BR/PH8 promastigote assessed as lysis at 100 ug/mL after 72 hrs; assay type: functional
Leishmania infantum = experiment: Antileishmanial activity against Leishmania infantum MHOM/FR/91/LEM2259 promastigote assessed as lysis at 100 ug/mL after 72 hrs; assay type: functional
Leishmania braziliensis = experiment: Antileishmanial activity against Leishmania braziliensis MHOM/BR/75/M2903 promastigote assessed as lysis at 100 ug/mL after 72 hrs; assay type: functional
Trypanosoma cruzi [4] = experiment: Antitrypanosomal activity against Trypanosoma cruzi bloodstream trypomastigote in mouse blood after 24 hrs relative to control; assay type: functional, organism-based
Trypanosoma cruzi [5] = experiment: Inhibition of respiration in Trypanosoma cruzi Tulahuen 2 assessed as oxygen uptake at 0.156 mM; assay type: functional; set-up: scale not given: the % may be the effect or the level left
Trypanosoma cruzi [6] = experiment: Inhibition of respiration in Trypanosoma cruzi Tulahuen 2 assessed as oxygen uptake at 0.325 mM; assay type: functional; set-up: scale not given: the % may be the effect or the level left
Trypanosoma cruzi [7] = experiment: Inhibition of respiration in Trypanosoma cruzi Tulahuen 2 assessed as oxygen uptake at 0.467 mM; assay type: functional; set-up: scale not given: the % may be the effect or the level left
Trypanosoma cruzi [8] = experiment: Inhibition of respiration in Trypanosoma cruzi Tulahuen 2 assessed as oxygen uptake at 0.622 mM; assay type: functional; set-up: scale not given: the % may be the effect or the level left
Trypanosoma cruzi [9] = experiment: Inhibition of respiration in Trypanosoma cruzi Tulahuen 2 assessed as oxygen uptake; assay type: functional, organism-based
Trypanosoma cruzi [10] = experiment: Inhibition of respiration in Trypanosoma cruzi Tulahuen 2 assessed as oxygen uptake at 0.091 mM; assay type: functional; set-up: scale not given: the % may be the effect or the level left
Trypanosoma cruzi [11] = experiment: Inhibition of respiration in Trypanosoma cruzi Tulahuen 2 assessed as oxygen uptake at 0.172 mM; assay type: functional; set-up: scale not given: the % may be the effect or the level left
Trypanosoma cruzi [12] = experiment: Inhibition of respiration in Trypanosoma cruzi Tulahuen 2 assessed as oxygen uptake at 0.272 mM; assay type: functional; set-up: scale not given: the % may be the effect or the level left
Trypanosoma cruzi [13] = experiment: Inhibition of respiration in Trypanosoma cruzi Tulahuen 2 assessed as oxygen uptake at 1.032 mM; assay type: functional; set-up: scale not given: the % may be the effect or the level left
Trypanosoma cruzi [14] = experiment: Inhibition of respiration in Trypanosoma cruzi Tulahuen 2 assessed as oxygen uptake at 0.258 mM; assay type: functional; set-up: scale not given: the % may be the effect or the level left
Trypanosoma cruzi [15] = experiment: Inhibition of respiration in Trypanosoma cruzi Tulahuen 2 assessed as oxygen uptake at 0.515 mM; assay type: functional; set-up: scale not given: the % may be the effect or the level left
Trypanosoma cruzi [16] = experiment: Inhibition of respiration in Trypanosoma cruzi Tulahuen 2 assessed as oxygen uptake at 1.030 mM; assay type: functional; set-up: scale not given: the % may be the effect or the level left
Trypanosoma cruzi [17] = experiment: Antitrypanosomal activity against Trypanosoma cruzi bloodstream trypomastigote infected in BALB/c mouse assessed as parasitemia at 30 mg/kg, po after 60 days by colorimetric method; assay type: functional, organism-based; set-up: dose 30 mg/kg
[18] = Toxicity in BALB/c mouse assessed as survival fraction at 30 mg/kg, po after 9 weeks; assay type: organism-based; set-up: dose 30 mg/kg, route oral; conditions: in vivo
Trypanosoma cruzi [19] = experiment: Antitrypanosomal activity against Trypanosoma cruzi bloodstream trypomastigote infected in BALB/c mouse assessed as antibodies at 30 mg/kg, po after 60 days by colorimetric method; assay type: functional, organism-based; set-up: dose 30 mg/kg
Trypanosoma cruzi [20] = experiment: Antitrypanosomal activity against Trypanosoma cruzi bloodstream trypomastigote infected in BALB/c mouse assessed as parasitemia at 50 mg/kg, po after 60 days by colorimetric method; assay type: functional, organism-based; set-up: dose 50 mg/kg
[21] = Toxicity in BALB/c mouse assessed as survival fraction at 50 mg/kg, po after 9 weeks; assay type: organism-based; set-up: dose 50 mg/kg, route oral; conditions: in vivo
Trypanosoma cruzi [22] = experiment: Antitrypanosomal activity against Trypanosoma cruzi bloodstream trypomastigote infected in BALB/c mouse assessed as antibodies at 50 mg/kg, po after 60 days by colorimetric method; assay type: functional, organism-based; set-up: dose 50 mg/kg
Trypanosoma cruzi [23] = experiment: Inhibition of respiration in Trypanosoma cruzi Tulahuen 2 assessed as oxygen uptake at 0.181 mM; assay type: functional; set-up: scale not given: the % may be the effect or the level left
Trypanosoma cruzi [24] = experiment: Inhibition of respiration in Trypanosoma cruzi Tulahuen 2 assessed as oxygen uptake at 0.362 mM; assay type: functional; set-up: scale not given: the % may be the effect or the level left
Trypanosoma cruzi [25] = experiment: Inhibition of respiration in Trypanosoma cruzi Tulahuen 2 assessed as oxygen uptake at 0.426 mM; assay type: functional; set-up: scale not given: the % may be the effect or the level left
Trypanosoma cruzi [26] = experiment: Inhibition of respiration in Trypanosoma cruzi Tulahuen 2 assessed as oxygen uptake at 0.543 mM; assay type: functional; set-up: scale not given: the % may be the effect or the level left
Trypanosoma cruzi [27] = experiment: Inhibition of respiration in Trypanosoma cruzi Tulahuen 2 assessed as oxygen uptake at 0.724 mM; assay type: functional; set-up: scale not given: the % may be the effect or the level left

Row | SMILES | Activity (Trypanosoma cruzi [1]) | Activity (J774 [2]) | Activity (J774 [3]) | Activity (Leishmania amazonensis) | Activity (Leishmania infantum) | Activity (Leishmania braziliensis) | IC50 (Trypanosoma cruzi [4]) | further results
1 | CN(C)c1ccc(C(=C2C=CC(=[N+](C)C)C=C2)c2ccc(N(C)C)cc2)cc1.[Cl-] [GENTIAN VIOLET] | 100% | – | – | – | – | – | – | –
2 | O=[N+]([O-])c1ccc2c(c1)c(O)nn2CCCCCN1CCCCC1 | 36% | Non-toxic | Non-toxic | <60% | <60% | <60% | – | –
3 | CN(C)CCCCCn1nc(OCc2ccccc2)c2cc([N+](=O)[O-])ccc21 | 100% | Toxic | Toxic | – | – | – | 12.5 µM | Activity (Trypanosoma cruzi [5]): 99%; Activity (Trypanosoma cruzi [6]): 12%; Activity (Trypanosoma cruzi [7]): 11%; Activity (Trypanosoma cruzi [8]): 7%; Activity (Trypanosoma cruzi [9]): Dose-dependent effect
4 | O=[N+]([O-])c1ccc2c(c1)c(OCc1ccccc1)nn2CCOCCN1CCCCC1 | 44% | Non-toxic | Non-toxic | – | – | – | – | –
5 | N=C(N)c1ccc(OCCCCCOc2ccc(C(=N)N)cc2)cc1 [PENTAMIDINE] | – | – | – | 100% | 100% | 100% | – | –
6 | O=[N+]([O-])c1ccc2c(c1)c(O)nn2CCOCCN1CCCCC1 | 53% | Non-toxic | Non-toxic | – | – | – | – | –
7 | O=[N+]([O-])c1ccc2c(c1)c(OCc1ccccc1)nn2CCCCCN1CCCCC1 | 34% | Toxic | Toxic | 100% | 100% | 100% | 6.6 µM | Activity (Trypanosoma cruzi [10]): 109%; Activity (Trypanosoma cruzi [11]): 111%; Activity (Trypanosoma cruzi [12]): 100%
8 | COc1nn(CCCCCN2CCCCC2)c2ccc([N+](=O)[O-])cc12.Cl | 100% | Toxic | Toxic | <60% | <60% | <60% | – | –
9 | O=[N+]([O-])c1ccc2c(c1)c(O)nn2Cc1ccccc1CN1CCCCC1 | 75% | Non-toxic | Non-toxic | <60% | <60% | <60% | > 50 µM | Activity (Trypanosoma cruzi [13]): 109%
10 | COc1nn(CCOCCN2CCCCC2)c2ccc([N+](=O)[O-])cc12.Cl | 85% | Non-toxic | Non-toxic | <60% | <60% | <60% | > 50 µM | Activity (Trypanosoma cruzi [14]): 118%; Activity (Trypanosoma cruzi [15]): 130%; Activity (Trypanosoma cruzi [16]): 155%; Activity (Trypanosoma cruzi [17]): Active; survival at 1512 h [18]: 87.5%; Activity (Trypanosoma cruzi [19]): Active
11 | CN(C)CCCCCn1nc(O)c2cc([N+](=O)[O-])ccc21 | 29% | Non-toxic | Non-toxic | – | – | – | – | –
12 | CN(C)Cc1ccccc1Cn1nc(O)c2cc([N+](=O)[O-])ccc21 | 0% | Non-toxic | Non-toxic | – | – | – | – | –
13 | O=C(Cn1ccnc1[N+](=O)[O-])NCc1ccccc1 [BENZNIDAZOLE] | – | – | – | – | – | – | – | Activity (Trypanosoma cruzi [20]): Active; survival at 1512 h [21]: 60%; Activity (Trypanosoma cruzi [22]): Active
14 | CN(C)CCOCCn1nc(OCc2ccccc2)c2cc([N+](=O)[O-])ccc21 | 87% | Non-toxic | Non-toxic | 100% | 100% | 100% | 16.4 µM | Activity (Trypanosoma cruzi [23]): 66%; Activity (Trypanosoma cruzi [24]): 10%; Activity (Trypanosoma cruzi [25]): 10%; Activity (Trypanosoma cruzi [26]): 11%; Activity (Trypanosoma cruzi [27]): 9%; Activity (Trypanosoma cruzi [17]): Active; survival at 1512 h [18]: 87.5%; Activity (Trypanosoma cruzi [19]): Active; Activity (Trypanosoma cruzi [9]): Dose-dependent effect
15 | COc1nn(CCOCCN(C)C)c2ccc([N+](=O)[O-])cc12.Cl | 77% | Non-toxic | Non-toxic | – | – | – | – | –
16 | CN(C)CCOCCn1nc(O)c2cc([N+](=O)[O-])ccc21 | 18% | Non-toxic | Non-toxic | – | – | – | – | –
